# In US8802700B2 (Vertex Pharmaceuticals Incorporated, priority 2010, dated 2014):
# pEC50: −log10 of the molar value.
# Target: T1, ΔF508-CFTR (Homo sapiens, UniProt P13569, DEL508-508)
# T1 construct: expressed in transfected cells
# Assay: Membrane potential optical assay (FRET voltage-sensor dyes, VIPR), identification of potentiator compounds
# Format: cell-based
# Details: Table 3; assay not given
# Summary of the method: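 Potentiator screen measured membrane potential via FRET between CC2-DMPE donor and DiSBAC2(3), read on VIPR II. Compound went in with the first addition of chloride-free gluconate bath; cells were ΔF508-CFTR-expressing NIH3T3 mouse fibroblasts, temperature-corrected at 27 °C for 24 h.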
# T1 sequence (P13569 with tags, fused parts or gaps DEL508-508): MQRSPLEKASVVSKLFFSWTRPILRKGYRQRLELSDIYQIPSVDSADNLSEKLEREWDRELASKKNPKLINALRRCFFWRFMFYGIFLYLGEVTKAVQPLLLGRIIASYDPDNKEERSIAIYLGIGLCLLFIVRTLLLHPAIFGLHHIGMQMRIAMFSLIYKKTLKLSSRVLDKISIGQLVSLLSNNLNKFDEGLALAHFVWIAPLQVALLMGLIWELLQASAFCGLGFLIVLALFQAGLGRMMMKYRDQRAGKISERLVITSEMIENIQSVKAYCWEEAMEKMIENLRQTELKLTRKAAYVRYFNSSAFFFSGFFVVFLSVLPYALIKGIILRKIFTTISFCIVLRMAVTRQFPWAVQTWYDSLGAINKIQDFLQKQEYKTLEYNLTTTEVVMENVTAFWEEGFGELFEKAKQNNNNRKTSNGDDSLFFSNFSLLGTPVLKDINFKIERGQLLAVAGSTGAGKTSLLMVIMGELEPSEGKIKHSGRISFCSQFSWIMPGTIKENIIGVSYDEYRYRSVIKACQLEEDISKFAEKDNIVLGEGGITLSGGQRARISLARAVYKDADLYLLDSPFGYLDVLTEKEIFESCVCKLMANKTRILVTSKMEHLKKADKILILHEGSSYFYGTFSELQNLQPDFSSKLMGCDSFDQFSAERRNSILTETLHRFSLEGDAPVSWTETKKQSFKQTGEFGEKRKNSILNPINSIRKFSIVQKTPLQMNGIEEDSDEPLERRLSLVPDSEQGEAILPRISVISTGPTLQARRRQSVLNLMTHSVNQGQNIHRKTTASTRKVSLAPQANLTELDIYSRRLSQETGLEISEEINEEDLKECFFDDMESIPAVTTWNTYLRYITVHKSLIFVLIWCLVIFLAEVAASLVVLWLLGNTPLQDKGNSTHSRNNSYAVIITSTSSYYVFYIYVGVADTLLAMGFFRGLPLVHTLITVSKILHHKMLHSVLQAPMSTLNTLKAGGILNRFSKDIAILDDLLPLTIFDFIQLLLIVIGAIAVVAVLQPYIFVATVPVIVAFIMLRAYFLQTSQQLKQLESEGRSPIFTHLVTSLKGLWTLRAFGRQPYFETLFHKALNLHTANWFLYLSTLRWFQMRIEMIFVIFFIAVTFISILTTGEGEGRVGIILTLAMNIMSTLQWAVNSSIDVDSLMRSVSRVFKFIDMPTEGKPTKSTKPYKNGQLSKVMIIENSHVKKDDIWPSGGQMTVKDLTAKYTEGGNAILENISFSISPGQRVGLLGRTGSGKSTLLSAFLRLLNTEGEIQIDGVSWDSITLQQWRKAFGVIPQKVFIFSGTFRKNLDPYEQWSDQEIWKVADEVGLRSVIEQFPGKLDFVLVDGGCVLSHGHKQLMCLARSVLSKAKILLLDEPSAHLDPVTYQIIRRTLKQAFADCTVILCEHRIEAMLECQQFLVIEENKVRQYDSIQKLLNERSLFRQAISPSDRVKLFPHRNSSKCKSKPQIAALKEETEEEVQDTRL
row,pEC50,Structure (SMILES)
1,> 5.00,"Cc1cc(-c2ccccc2NC(=O)c2c[nH]c3ccccc3c2=O)ccc1F [Compound 79, N-[2-(4-fluoro-3-methyl-phenyl)phenyl]-4-oxo-1H-quinoline-3-carboxamide]"
2,> 5.00,"COc1ccccc1-c1cc2cc[nH]c2cc1NC(=O)c1c[nH]c2ccccc2c1=O [Compound 237, N-[5-(2-methoxyphenyl)-1H-indol-6-yl]-4-oxo-1H-quinoline-3-carboxamide]"

# Same assay, conditions: Table 3; assay not given; read-out: % Activity (% Efficacy, relative efficacy)
row,Emax [%],Structure (SMILES)
1,25 to 100,"CN(C)CCS(=O)(=O)Nc1cc(NC(=O)c2c[nH]c3ccccc3c2=O)cc(C(F)(F)F)c1 [Compound 359, N-[3-(2-dimethylaminoethylsulfonylamino)-5-(trifluoromethyl)phenyl]-4-oxo-1H-quinoline-3-carboxamide]"
2,> 100,"CC1(c2cc(F)c(NC(=O)c3c[nH]c4cccc(C(F)(F)F)c4c3=O)cc2O)CCCCC1 [Compound 706, N-[2-fluoro-5-hydroxy-4-(1-methylcyclohexyl)-phenyl]-4-oxo-5-(trifluoromethyl)-1H-quinoline-3-carboxamide]"
3,25 to 100,"O=C(Nc1ccc(C(F)(F)F)cc1Cl)c1c[nH]c2ccccc2c1=O [Compound 532, N-[2-chloro-4-(trifluoromethyl)phenyl]-4-oxo-1H-quinoline-3-carboxamide]"
4,25 to 100,"O=C(Nc1cccc2cc[nH]c12)c1c[nH]c2ccccc2c1=O [Compound 37, N-(1H-indol-7-yl)-4-oxo-1H-quinoline-3-carboxamide]"
5,25 to 100,"CNc1ccc(C(C)C)c(NC(=O)c2c[nH]c3ccccc3c2=O)c1 [Compound 399, N-(2-isopropyl-5-methylamino-phenyl)-4-oxo-1H-quinoline-3-carboxamide]"
6,25 to 100,"O=C(Nc1cccnc1Oc1ccccc1F)c1c[nH]c2ccccc2c1=O [Compound 435, N-[2-(2-fluorophenoxy)-3-pyridyl]-4-oxo-1H-quinoline-3-carboxamide]"
7,25 to 100,"Nc1cc(NC(=O)c2c[nH]c3ccccc3c2=O)ccc1Cl [Compound 453, N-(3-amino-4-chloro-phenyl)-4-oxo-1H-quinoline-3-carboxamide]"
8,< 25,"CCOc1ccc(NC(C)=O)cc1NC(=O)c1c[nH]c2ccccc2c1=O [Compound 132, N-(5-acetylamino-2-ethoxy-phenyl)-4-oxo-1H-quinoline-3-carboxamide]"
9,25 to 100,"Cc1ccc(-c2ccccc2NC(=O)c2c[nH]c3ccccc3c2=O)o1 [Compound 311, N-[2-(5-methyl-2-furyl)phenyl]-4-oxo-1H-quinoline-3-carboxamide]"
10,25 to 100,"O=C(Nc1cc(OCc2ccccc2)c(C2CCCCC2)cc1C(F)(F)F)c1c[nH]c2ccccc2c1=O [Compound 654, N-[5-benzyloxy-4-cyclohexyl-2-(trifluoromethyl)phenyl]-4-oxo-1H-quinoline-3-carboxamide]"
11,25 to 100,"N#Cc1c[nH]c2cc(NC(=O)c3c[nH]c4ccccc4c3=O)ccc12 [Compound 339, N-(3-cyano-1H-indol-6-yl)-4-oxo-1H-quinoline-3-carboxamide]"
12,25 to 100,"Cc1cc(-c2ccccc2NC(=O)c2c[nH]c3ccccc3c2=O)ccc1F [Compound 79, N-[2-(4-fluoro-3-methyl-phenyl)phenyl]-4-oxo-1H-quinoline-3-carboxamide]"
13,25 to 100,"O=C(Nc1ccc(OC(F)(F)F)c(N2CCCCC2)c1)c1c[nH]c2ccccc2c1=O [Compound 696, 4-oxo-N-[3-(1-piperidyl)-4-(trifluoromethoxy)phenyl]-1H-quinoline-3-carboxamide]"
14,25 to 100,"CC(C)(C)c1cc(C(C)(C)C)c(C(F)F)cc1NC(=O)c1c[nH]c2ccccc2c1=O [Compound 438, N-[5-(difluoromethyl)-2,4-ditert-butyl-phenyl]-4-oxo-1H-quinoline-3-carboxamide]"
15,< 25,"O=C(Nc1ccc2[nH]c(=O)oc2c1)c1c[nH]c2ccccc2c1=O [Compound 152, 4-oxo-N-(2-oxo-3H-benzooxazol-6-yl)-1H-quinoline-3-carboxamide]"
16,25 to 100,"CCOc1ccccc1NC(=O)c1c[nH]c2ccccc2c1=O [Compound 380, N-(2-ethoxyphenyl)-4-oxo-1H-quinoline-3-carboxamide]"
17,25 to 100,"CC(C)(C)OC(=O)N1CCC(C)(C)c2ccc(NC(=O)c3c[nH]c4ccccc4c3=O)cc21 [Compound 108, 4,4-dimethyl-7-[(4-oxo-1H-quinolin-3-yl)carbonylamino]-1,2,3,4-tetrahydroquinoline-1-carboxylic acid tert-butyl ester]"
18,25 to 100,"N#Cc1cc2ccc(NC(=O)c3c[nH]c4ccccc4c3=O)cc2[nH]1 [Compound 270, N-(2-cyano-1H-indol-6-yl)-4-oxo-1H-quinoline-3-carboxamide]"
19,25 to 100,"O=C(Nc1ccccc1-c1ccccc1Oc1ccccc1)c1c[nH]c2ccccc2c1=O [Compound 247, 4-oxo-N-[2-(2-phenoxyphenyl)phenyl]-1H-quinoline-3-carboxamide]"
20,25 to 100,"CC(C)(C)c1c[nH]c2cc(NC(=O)c3c[nH]c4ccccc4c3=O)ccc12 [Compound 478, 4-oxo-N-(3-tert-butyl-1H-indol-6-yl)-1H-quinoline-3-carboxamide]"
21,25 to 100,"CC(=O)n1ccc2ccc(NC(=O)c3c[nH]c4ccccc4c3=O)cc21 [Compound 187, N-(1-acetyl-1H-indol-6-yl)-4-oxo-1H-quinoline-3-carboxamide]"

row,Emax [%],Structure (SMILES)
1,25 to 100,"O=C(Nc1ccc2[nH]ccc2c1)c1c[nH]c2ccccc2c1=O [Compound 294, N-(1H-indol-5-yl)-4-oxo-1H-quinoline-3-carboxamide]"
2,25 to 100,"CN(C(=O)c1c[nH]c2ccccc2c1=O)c1cc(O)c(C(C)(C)C)cc1C(C)(C)C [Compound 337, N-(5-hydroxy-2,4-ditert-butyl-phenyl)-N-methyl-4-oxo-1H-quinoline-3-carboxamide]"
3,25 to 100,"CCC(CC)(c1cc(F)c(NC(=O)c2cnc3ccccc3c2O)cc1O)C(C)(C)C [Compound 153, N-[4-(1,1-diethyl-2,2-dimethyl-propyl)-2-fluoro-5-hydroxy-phenyl]-4-hydroxy-quinoline-3-carboxamide]"
4,25 to 100,"O=C(Nc1cccc2c1CCC2)c1c[nH]c2ccccc2c1=O [Compound 373, N-indan-4-yl-4-oxo-1H-quinoline-3-carboxamide]"
5,25 to 100,"CCc1cc(C(C)(C)C)c(O)cc1NC(=O)c1c[nH]c2cccc(O)c2c1=O [Compound 507, N-(2-ethyl-5-hydroxy-4-tert-butyl-phenyl)-5-hydroxy-4-oxo-1H-quinoline-3-carboxamide]"
6,25 to 100,"O=C(Nc1ccc2c(c1)NCC21CC1)c1c[nH]c2ccccc2c1=O [Compound 22, 4-Oxo-1,4-dihydro-quinoline-3-carboxylic acid N-(1′,2′-dihydrospiro[cyclopropane-1,3′-[3H]indol]-6′-yl)-amide]"
7,25 to 100,"CC(=O)Nc1ccc(C(C)(C)C)c(NC(=O)c2c[nH]c3ccccc3c2=O)c1 [Compound 316, N-(5-acetylamino-2-tert-butyl-phenyl)-4-oxo-1H-quinoline-3-carboxamide]"
8,< 25,"O=C(Nc1ccncc1)c1c[nH]c2ccccc2c1=O [Compound 53, 4-oxo-N-(4-pyridyl)-1H-quinoline-3-carboxamide]"
9,25 to 100,"CC(C)(C)c1ccc(NC(=O)c2c[nH]c3ccccc3c2=O)c(Cl)c1 [Compound 362, N-(2-chloro-4-tert-butyl-phenyl)-4-oxo-1H-quinoline-3-carboxamide]"
10,< 25,"Cc1ccc(C#N)c(NC(=O)c2c[nH]c3ccccc3c2=O)c1 [Compound 89, N-(2-cyano-5-methyl-phenyl)-4-oxo-1H-quinoline-3-carboxamide]"
11,> 100,"Cc1cccc2[nH]cc(C(=O)Nc3ccc(OC(C)C)cc3C(F)(F)F)c(=O)c12 [Compound 547, N-[4-isopropoxy-2-(trifluoromethyl)phenyl]-5-methyl-4-oxo-1H-quinoline-3-carboxamide]"
12,25 to 100,"Cc1ccc2[nH]cc(C(=O)Nc3ccc(N4CCC(C)(C)C4)cc3C(F)(F)F)c(=O)c2c1 [Compound 489, N-[4-(3,3-dimethylpyrrolidin-1-yl)-2-(trifluoromethyl)phenyl]-6-methyl-4-oxo-1H-quinoline-3-carboxamide]"
13,25 to 100,"COc1ccc(NC(=O)c2c[nH]c3ccccc3c2=O)cc1N [Compound 378, N-(3-amino-4-methoxy-phenyl)-4-oxo-1H-quinoline-3-carboxamide]"
14,25 to 100,"COc1ccccc1-c1cc2cc[nH]c2cc1NC(=O)c1c[nH]c2ccccc2c1=O [Compound 237, N-[5-(2-methoxyphenyl)-1H-indol-6-yl]-4-oxo-1H-quinoline-3-carboxamide]"
15,25 to 100,"COc1cc(NC(=O)c2c[nH]c3ccccc3c2=O)cc2ccccc12 [Compound 717, N-(4-methoxy-2-naphthyl)-4-oxo-1H-quinoline-3-carboxamide]"
16,25 to 100,"O=C(Nc1cccnc1Oc1ccc(F)cc1)c1c[nH]c2ccccc2c1=O [Compound 147, N-[2-(4-fluorophenoxy)-3-pyridyl]-4-oxo-1H-quinoline-3-carboxamide]"
17,25 to 100,"Cc1ccc(C(F)(F)F)cc1NC(=O)c1c[nH]c2ccc(F)cc2c1=O [Compound 678, 6-fluoro-N-[2-methyl-5-(trifluoromethyl)phenyl]-4-oxo-1H-quinoline-3-carboxamide]"
18,25 to 100,"CC1(c2cc(F)c(NC(=O)c3c[nH]c4ccccc4c3=O)cc2O)CCCCC1 [Compound 92, N-[2-fluoro-5-hydroxy-4-(1-methylcyclohexyl)-phenyl]-4-oxo-1H-quinoline-3-carboxamide]"
19,25 to 100,"CC(CO)(CO)c1ccc(NC(=O)c2c[nH]c3cccc(O)c3c2=O)cc1 [Compound 493, 5-hydroxy-N-[4-[2-hydroxy-1-(hydroxymethyl)-1-methyl-ethyl]phenyl]-4-oxo-1H-quinoline-3-carboxamide]"
20,< 25,"O=C(Nc1cccc2nsnc12)c1c[nH]c2ccccc2c1=O [Compound 54, 4-oxo-N-(8-thia-7,9-diazabicyclo[4.3.0]nona-2,4,6,9-tetraen-5-yl)-1H-quinoline-3-carboxamide]"

row,Structure (SMILES),Emax [%]
1,"COC(=O)[C@@H]1C[C@@H](OC(C)(C)C)CN1c1ccc(NC(=O)c2c[nH]c3ccccc3c2=O)c(C(F)(F)F)c1 [Compound 550, (2S,4R)-methyl 4-tert-butoxy-1-(4-(4-oxo-1,4-dihydroquinoline-3-carboxamido)-3-(trifluoromethyl)phenyl)pyrrolidine-2-carboxylate]",25 to 100
